In patent US20260325504A1, “Genetically Engineered Human Pituitary Corticotroph Tumor Organoids Exhibit Divergent Responses to Selective Glucocorticoid Receptor Modulators” (Corcept Therapeutics Incorporated, priority 2022, published 2026):
“Also recorded” adds a separate entry of the source.

Legend:
SSTR2 [1] = assay: Differential expression of SSTR2 (qRT-PCR) in iPSC generated pituitary organoids; type: cell-based, human; settings: for effect on mifepristone-induced SSTR2 expression / effect on relacorilant-induced SSTR2 expression: iPSC organoids; for effect on mifepristone-induced SSTR2 expression: pretreatment 2 h before mifepristone (500 nM); for effect on relacorilant-induced SSTR2 expression: pretreatment 2 h before relacorilant (500 nM); for differential expression of SSTR2: iPSCctrl organoids, compound alone, 48 h, FIG. 5C, D
Experimental: (§1) Sonic Hedgehog (SHH) was withdrawn from the organoid growth media 16 hours prior to treatment. The experimental treatment groups included: vehicle (Veh), mifepristone (500 nM, Selleckchem S2606), GANT61 (5 μM, Stemcell Technologies 73692), ketoconazole (Keto, 10 μM, Selleckchem S1353), pasireotide (Pas, 100 nM, Target Mol TP2207-SB001), octreotide (Oct, 100 nM, Selleckchem P1017), mifepristone plus GANT61, mifepristone plus Keto, mifepristone plus Pas, relacorilant (500 nM, Corcept Therapeutics CORT125134), relacorilant plus Pas, relacorilant plus Oct, or dexamethasone (Dexa, 100 nM, SIGMA S4902). In the combination treatments, cultures were pretreated with the GANT61, Keto, Pas or Oct for 2 hours prior to treatment with mifepristone or Rela. PitNET tissue derived organoids hPITO36, hPITO37, hPITO38, hPITO39, and hPITO40 were treated with the following experimental conditions: Vehicle (1), pasireotide (2), relacorilant (3), relacorilant & pasireotide (4), mifepristone (5), mifepristone & pasireotide (6). The IC50 values used for each hPITO line for each drug were determined based on dose responses (FIG. 12). All organoid cultures were treated for 48 hours prior to analysis.
(§2) RNA was extracted from PitNET tissue or iPSC generated organoids using TRI Reagent® (Molecular Research Center Inc TR118) and the High Capacity cDNA Reverse Transcription Kit (Applied Biosystems, Foster City, CA) was used for cDNA synthesis of RNA following the recommended protocol. For each sample, 60 ng RNA was reverse transcribed to yield approximately […] total cDNA that was then used for the qRT-PCR. Pre-designed real-time polymerase chain reaction assays were purchased for the following genes: TPit (Thermo Fisher Scientific 4331182 Hs00193027), SF1 (Thermo Fisher Scientific 4331182 Hs00610436), SSTR2 (Thermo Fisher Scientific 4331182 Hs00265624_s1), SSTR5 (Thermo Fisher Scientific 4331182 Hs00990407_s1), POMC (Thermo Fisher Scientific 4331182 Hs01596743_ml), hPRT (Thermo Fisher Scientific 4331182 Hs02800695_ml), and FKBP5 (Thermo Fisher Scientific 4331182 Hs01561006_m1). Polymerase chain reaction amplifications were performed in a total volume of 20 μL containing 20× TaqMan Expression Assay primers, 2× TaqMan Universal Master Mix (Applied Biosystems, TaqMan® Gene Expression Systems), and cDNA template. Each polymerase chain reaction amplification was performed in triplicate wells in a StepOne Real-Time PCR System (Applied Biosystems) by using the following conditions: 500C 2 minutes, 95° C. 10 minutes, 95° C. 15 seconds (denature) and 60° C. 1 minute (anneal/extend) for 40 cycles. Fold change was calculated as the following: (Ct-Ct high)=n target, 2ntarget/2nHPRT=fold change where Ct=threshold cycle. The results were expressed as average fold change in or differential gene expression relative to control, with HPRT used as an internal control according to Livak and Schmittgen.

SSTR5 = assay: Differential expression of SSTR5 (qRT-PCR) in iPSC generated pituitary organoids; type: cell-based, human; settings: for effect on mifepristone-induced SSTR5 expression / effect on relacorilant-induced SSTR5 expression: iPSC organoids; for effect on mifepristone-induced SSTR5 expression: pretreatment 2 h before mifepristone (500 nM); for effect on relacorilant-induced SSTR5 expression: pretreatment 2 h before relacorilant (500 nM); for differential expression of SSTR5: iPSCctrl organoids, compound alone, 48 h, FIG. 5C, D
Experimental: as §1, §2

Hedgehog pathway = settings: by blocking activation of SMO or GLI1/GLI2; cited from earlier work
FKBP5 = FKBP5 expression (GR target gene, qRT-PCR) in PitNET organoids; type: cell-based, human; settings: PitNET organoids (iPSCctrl, iPSCUSP48MV, iPSCUSP8), 48 h, FIG. 16A-C
Experimental: as §1
as §2, with “10 minutes, 95° C. 15 seconds (denature) and 60° C. 1 minute (anneal/extend) for 40 cycles.” left out

SSTR2 [2] = settings: cited from earlier work
iPSC^ctrl organoids [3] = assay: EdU uptake (proliferation) in iPSCctrl organoids; type: cell-based, human; settings: 100 nM pretreatment 2 h before mifepristone
Experimental: (§3) iPSCs were stained for pituitary specific hormones including luteinizing hormone (LH), follicle-stimulating hormone (FSH), growth hormone (GH), prolactin (PRL), ACTH, cytokeratin 8/18 (CAM5.2), pituitary transcription factor PIT-1 and neuroendocrine marker Synaptophysin (Table 5). Cultures were immunostained for proliferation marker EdU (Click-IT EdU Alexa Fluor 555 Imaging Kit, Thermo Fisher Scientific C10338). Antibody dilutions were determined based on manufacturer guidelines and antibody titration (Table 5). Staining was conducted according to previously published protocols. Briefly, organoids and iPSCs grown in 8-well glass bottom chamber slides were fixed using 3.7% formaldehyde, washed with DPBS, permeabilized with 0.5% Triton X-100 (SIGMA X-100, PBS-T, 20 min at room temperature), washed with 0.01% PBS-T, and blocked with 2% donkey serum (Jackson Immuno Research 017-000-121) for 1 hour at room temperature. After blocking, primary antibodies were added and incubated overnight at 4° C. Slides were washed with 0.01% PBS-T and incubated with secondary antibodies (Table 5) with Hoechst (Thermo Fisher Scientific H1399) for 1 hour at room temperature. Organoids were washed and stored in PBS at 4° C. until microscopic analysis. High content confocal microscopy was performed using the Nikon Ti2-E Inverted Microscope (with a Crest X-Light V2 L-FOV Spinning Disk Confocal) at the University of Arizona Cancer Center, or a ZEISS LSM880 34 channel Laser Scanning Confocal Microscope at University of Arizona Marley Imaging Core. Fluorescence intensity was quantified as the percentage of marker-positive cells versus total cells, using Nikon Elements Software (Version 5.21.05). Proliferation for each iPSC line was quantified as the percentage of EdU-positive cells versus total cells.
as §1, with “PitNET tissue derived organoids hPITO36, hPITO37, hPITO38, hPITO39, and hPITO40 were treated with the following experimental conditions: Vehicle (1), pasireotide (2), relacorilant (3), relacorilant & pasireotide (4), mifepristone (5), mifepristone & pasireotide (6).” left out, “All organoid cultures were treated for 48 hours prior to analysis.” left out

iPSC^USP48MV organoids [4] = assay: EdU uptake (proliferation) in iPSCUSP48MV organoids; type: cell-based, human; settings: 100 nM pretreatment 2 h before mifepristone
Experimental: as §3
as §1, with “PitNET tissue derived organoids hPITO36, hPITO37, hPITO38, hPITO39, and hPITO40 were treated with the following experimental conditions: Vehicle (1), pasireotide (2), relacorilant (3), relacorilant & pasireotide (4), mifepristone (5), mifepristone & pasireotide (6).” left out, “All organoid cultures were treated for 48 hours prior to analysis.” left out

iPSC^ctrl organoids [5] = assay: ACTH secretion ELISA, iPSCctrl organoids; type: cell-based, human; settings: 100 nM pretreatment 2 h before mifepristone, FIG. 6G
Experimental: as §1
(§4) Organoid conditioned media was collected and ACTH secretion using an ELISA according to the manufacturer's protocol (Novus Biologicals Human ACTH ELISA Kit NBP2-66401). The optical density was measured at a wavelength of 450 nm, and ACTH concentration (pg/mL) was interpolated using a standard curve with a 4-parameter logistic regression analysis using GraphPad Prism (v9.3.1).

iPSC^USP48MV organoids [6] = assay: ACTH secretion ELISA, iPSCUSP48 organoids; type: cell-based, human; settings: iPSCUSP48, 100 nM pretreatment 2 h before mifepristone, FIG. 7G
Experimental: as §1, §4

## CN(C)c1ccccc1CN1CCCN(Cc2ccccc2N(C)C)C1c1ccncc1 [GANT61]
SSTR2 [1]
  effect on mifepristone-induced SSTR2 expression: reduced the induction of SSTR2 expression; also recorded: blocks SSTR2 and SSTR5 expression; also recorded: inhibited
  effect on relacorilant-induced SSTR2 expression: blocks SSTR2 and SSTR5 expression; also recorded: inhibited
  differential expression of SSTR2: no effect
SSTR5
  effect on mifepristone-induced SSTR5 expression: blocks SSTR2 and SSTR5 expression; also recorded: reduced; also recorded: inhibited
  effect on relacorilant-induced SSTR5 expression: reduced the induction of SSTR5 expression; also recorded: blocks SSTR2 and SSTR5 expression; also recorded: inhibited
  differential expression of SSTR5: no effect
Hedgehog pathway
  cell proliferation: reduce cell proliferation and cell viability
  cell viability: reduce cell proliferation and cell viability

## C[C@@H]1C[C@H]2[C@@H]3CCC4=CC(=O)C=C[C@]4(C)[C@@]3(F)[C@@H](O)C[C@]2(C)[C@@]1(O)C(=O)CO [dexamethasone]
SSTR2 [1]
  differential expression of SSTR2: significantly decreased expression
SSTR5
  differential expression of SSTR5: significantly decreased expression
FKBP5
  differential expression of FKBP5: significant induction in gene expression

## CC(=O)N1CCN(c2ccc(OCC3COC(Cn4ccnc4)(c4ccc(Cl)cc4Cl)O3)cc2)CC1 (stereo not shown) [ketoconazole]
SSTR2 [1]
  effect on mifepristone-induced SSTR2 expression: no effect; also recorded: failed to block the induction
  effect on relacorilant-induced SSTR2 expression: failed to block the induction
  differential expression of SSTR2: no effect
SSTR2 [1]; listed as ketoconozaole
  effect on mifepristone-induced SSTR2 expression: no effect
  effect on relacorilant-induced SSTR2 expression: no effect
SSTR5
  effect on mifepristone-induced SSTR5 expression: no effect; also recorded: failed to block the induction
  effect on relacorilant-induced SSTR5 expression: no effect; also recorded: failed to block the induction
  differential expression of SSTR5: no effect
SSTR5; listed as ketoconozaole
  effect on mifepristone-induced SSTR5 expression: no effect
  effect on relacorilant-induced SSTR5 expression: no effect
Hedgehog pathway
  cell proliferation: reduce cell proliferation and cell viability
  cell viability: reduce cell proliferation and cell viability

## CC(C)[C@@H]1NC(=O)[C@H](CCCCN)NC(=O)[C@@H](Cc2c[nH]c3ccccc23)NC(=O)[C@H](Cc2ccc(O)cc2)NC(=O)[C@@H](NC(=O)[C@H](N)Cc2ccc3ccccc3c2)CSSC[C@@H](C(=O)N[C@H](C(N)=O)[C@@H](C)O)NC1=O [lanreotide]
SSTR2 [2]
  binding to / activation of SSTR2: preferentially binds or activates somatostatin receptor type 2 (SSTR2)

## C[C@@H](O)[C@@H]1NC(=O)[C@H](CCCCN)NC(=O)[C@@H](Cc2c[nH]c3ccccc23)NC(=O)[C@H](Cc2ccccc2)NC(=O)[C@@H](NC(=O)[C@H](N)Cc2ccccc2)CSSC[C@@H](C(=O)N[C@H](CO)[C@@H](C)O)NC1=O [octreotide]
iPSC^ctrl organoids [3]
  effect on proliferative response to mifepristone (EdU uptake): inhibited
iPSC^USP48MV organoids [4]
  effect on proliferative response to mifepristone (EdU uptake): inhibited
iPSC^ctrl organoids [5]
  effect on ACTH secretion in response to mifepristone: inhibition by octreotide was greater that pasireotide
iPSC^ctrl organoids [5]; listed as Oct
  effect on ACTH secretion in response to mifepristone: significantly reduced ACTH secretion
iPSC^USP48MV organoids [6]
  effect on ACTH secretion in response to mifepristone: inhibition by octreotide was greater that pasireotide
iPSC^USP48MV organoids [6]; listed as Oct
  effect on ACTH secretion in response to mifepristone: significantly reduced ACTH secretion
SSTR2 [2]
  binding to / activation of SSTR2: preferentially binds or activates somatostatin receptor type 2 (SSTR2)
